Legend:
Conditions in all cases: incubation time: 72 h
HDQ-P1 = test: normalised response (% of control), CellTox Green; higher = less cell death (100 = DMSO, 0 = benzethonium chloride kill control)
Outline: (§1)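 In 384-well plates holding compound at 5 concentrations in 10-fold steps over a 10,000-fold range specific to each compound, breast cancer cell lines were seeded as 20 µl suspension and incubated 72 h. CellTox Green fluorescence was measured at 485/520 nm, after which CellTiter-Glo luminescence was measured following 10 min at room temperature. Plate signals were normalised to 0.1 % DMSO (100) and a positive kill control (0), and each value is the normalised signal at a single concentration.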

BT-549 = test: as above
Outline: as §1

CAL-120 [1] = test: as above
Outline: as §1

MCF-10A [2] = test: as above
Outline: as §1

HCC1599 [3] = test: as above
Outline: as §1

CAL-85-1 [4] = test: as above
Outline: as §1

HCC1143 [5] = test: as above
Outline: as §1

BT-474 [6] = test: as above
Outline: as §1

Hs578T [7] = test: as above
Outline: as §1

MDA-MB-436 [8] = test: as above
Outline: as §1

CAL-148 = test: as above
Outline: as §1

DU-4475 [9] = test: as above
Outline: as §1

MDA-MB-468 [10] = test: as above
Outline: as §1

MDA-MB-453 [11] = test: as above
Outline: as §1

HCC1937 = test: drug sensitivity score (DSS), CellTox Green (DSS (AUC-based score)); higher = stronger drug effect (viability inhibition or cytotoxicity); extreme values may be limits of the assay
Outline: (§2)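 The area under the fitted dose-response curve was used to calculate the drug sensitivity score. Cells from breast cancer lines were incubated for 72 h in 384-well plates with compound at 5 concentrations spaced 10-fold over a 10,000-fold range specific to each compound. Plates were read for CellTox Green and then CellTiter-Glo, and normalised to 0.1 % DMSO and a positive kill control.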

CAL-120 [12] = test: as above
Outline: as §2

MCF-10A [13] = test: as above
Outline: as §2

HCC1599 [14] = test: as above
Outline: as §2

CAL-85-1 [15] = test: as above
Outline: as §2

BT-474 [16] = test: as above
Outline: as §2

Hs578T [17] = test: as above
Outline: as §2

MDA-MB-231 = test: as above
Outline: as §2

MDA-MB-436 [18] = test: as above
Outline: as §2

DU-4475 [19] = test: as above
Outline: as §2

MDA-MB-468 [20] = test: as above
Outline: as §2

MDA-MB-453 [21] = test: as above
Outline: as §2

CAL-51 = test: as above
Outline: as §2

HCC1143 [22] = test: as above
Outline: as §2

For CNC(=O)c1cc(Oc2ccc(NC(=O)Nc3ccc(Cl)c(C(F)(F)F)c3)c(F)c2)ccn1 [Regorafenib] (10000 nM), the normalised response (HDQ-P1) was 111%, the normalised response (BT-549) was 109% and the normalised response (CAL-120 [1]) was 97.2%. For the same molecule, the normalised response (MCF-10A [2]) was 94.5%, the normalised response (HCC1599 [3]) was 106% and the normalised response (CAL-85-1 [4]) was 83.8%. The normalised response (HCC1143 [5]) was 120%, the normalised response (BT-474 [6]) was 82% and the normalised response (Hs578T [7]) was 109%. For the same molecule, the normalised response (MDA-MB-436 [8]) was 113%, the normalised response (CAL-148) was 85.1% and the normalised response (DU-4475 [9]) was 92.5%. For the same molecule, the normalised response (MDA-MB-468 [10]) was 152% and the normalised response (MDA-MB-453 [11]) was 98.3%.
For CO[C@H]1C[C@@H]2CC[C@@H](C)[C@@](O)(O2)C(=O)C(=O)N2CCCC[C@H]2C(=O)O[C@H]([C@H](C)C[C@@H]2CC[C@@H](OP(C)(C)=O)[C@H](OC)C2)CC(=O)[C@H](C)/C=C(\C)[C@@H](O)[C@@H](OC)C(=O)[C@H](C)C[C@H](C)/C=C/C=C/C=C/1C [Ridaforolimus] (100 nM), the normalised response (HDQ-P1) was 70.1%, the normalised response (BT-549) was 125% and the normalised response (CAL-120 [1]) was 106%. It also gave a normalised response (MCF-10A [2]) of 97.3%, a normalised response (HCC1599 [3]) of 89.3% and a normalised response (CAL-85-1 [4]) of 92.7%. It also gave a normalised response (HCC1143 [5]) of 121%, a normalised response (BT-474 [6]) of 100% and a normalised response (Hs578T [7]) of 116%. It also gave a normalised response (MDA-MB-436 [8]) of 53.1%, a normalised response (CAL-148) of 85.5% and a normalised response (DU-4475 [9]) of 100%. The normalised response (MDA-MB-468 [10]) was 196% and the normalised response (MDA-MB-453 [11]) was 104%.
With c1ccc2c(CCNc3ccc(Nc4ccncc4)cc3)c[nH]c2c1 [Serdemetan] (10000 nM) the normalised response (HDQ-P1) was 88.7%, the normalised response (BT-549) was 86.7% and the normalised response (CAL-120 [1]) was 88.8%. For the same molecule, the normalised response (MCF-10A [2]) was 89.8%, the normalised response (HCC1599 [3]) was 82.8% and the normalised response (CAL-85-1 [4]) was 94%. The normalised response (HCC1143 [5]) was 89.7%, the normalised response (BT-474 [6]) was 56.7% and the normalised response (Hs578T [7]) was 118%. It also gave a normalised response (MDA-MB-436 [8]) of 99.5%, a normalised response (CAL-148) of 26% and a normalised response (DU-4475 [9]) of 68.3%. The normalised response (MDA-MB-468 [10]) was 124% and the normalised response (MDA-MB-453 [11]) was 95.2%.
For S=P(N1CC1)(N1CC1)N1CC1 [Thio-TEPA], the drug sensitivity score (HCC1937) was 0, the drug sensitivity score (CAL-120 [12]) was 0 and the drug sensitivity score (MCF-10A [13]) was 0. For the same molecule, the drug sensitivity score (HCC1599 [14]) was 0, the drug sensitivity score (CAL-85-1 [15]) was 0 and the drug sensitivity score (BT-474 [16]) was 0. For the same molecule, the drug sensitivity score (Hs578T [17]) was 3.7, the drug sensitivity score (MDA-MB-231) was 0 and the drug sensitivity score (MDA-MB-436 [18]) was 0. For the same molecule, the drug sensitivity score (DU-4475 [19]) was 0, the drug sensitivity score (MDA-MB-468 [20]) was 0 and the drug sensitivity score (MDA-MB-453 [21]) was 0.
CN(C)CCOc1ccc(/C(=C(/CCCl)c2ccccc2)c2ccccc2)cc1 [Toremifene] showed a drug sensitivity score (HCC1937) of 5.17, a drug sensitivity score (CAL-120 [12]) of 0 and a drug sensitivity score (MCF-10A [13]) of 0. It also gave a drug sensitivity score (HCC1599 [14]) of 0, a drug sensitivity score (CAL-85-1 [15]) of 0 and a drug sensitivity score (CAL-51) of 0. It also gave a drug sensitivity score (HCC1143 [22]) of 2.33, a drug sensitivity score (BT-474 [16]) of 2.47 and a drug sensitivity score (Hs578T [17]) of 0. The drug sensitivity score (MDA-MB-436 [18]) was 0, the drug sensitivity score (DU-4475 [19]) was 0 and the drug sensitivity score (MDA-MB-468 [20]) was 4.22. It also gave a drug sensitivity score (MDA-MB-453 [21]) of 0.
For CC(C)C[C@@H](C(=O)N[C@H](C(=O)OC1CCCC1)c1ccccc1)[C@H](O)C(=O)NO [Tosedostat] (1000 nM), the normalised response (HDQ-P1) was 57.9%, the normalised response (BT-549) was 70.1% and the normalised response (CAL-120 [1]) was 39.9%. For the same molecule, the normalised response (MCF-10A [2]) was 80.4%, the normalised response (HCC1599 [3]) was 90.8% and the normalised response (CAL-85-1 [4]) was 1.91%. It also gave a normalised response (HCC1143 [5]) of 105%, a normalised response (BT-474 [6]) of 91.7% and a normalised response (Hs578T [7]) of 89%. The normalised response (MDA-MB-436 [8]) was 75.5%, the normalised response (CAL-148) was 84.1% and the normalised response (DU-4475 [9]) was 101%. For the same molecule, the normalised response (MDA-MB-468 [10]) was 33.4% and the normalised response (MDA-MB-453 [11]) was 95.1%.
Work on CC(C)C[C@@H](C(=O)N[C@H](C(=O)OC1CCCC1)c1ccccc1)[C@H](O)C(=O)NO [Tosedostat] (10000 nM) yielded a normalised response (HDQ-P1) of 26%, a normalised response (BT-549) of -46.2% and a normalised response (CAL-120 [1]) of 36.2%. It also gave a normalised response (MCF-10A [2]) of 86.8%, a normalised response (HCC1599 [3]) of 95.4% and a normalised response (CAL-85-1 [4]) of -30.8%. The normalised response (HCC1143 [5]) was 30.3%, the normalised response (BT-474 [6]) was 66.9% and the normalised response (Hs578T [7]) was 89.8%. For the same molecule, the normalised response (MDA-MB-436 [8]) was 70.6%, the normalised response (CAL-148) was 54.2% and the normalised response (DU-4475 [9]) was 97.8%. For the same molecule, the normalised response (MDA-MB-468 [10]) was -9% and the normalised response (MDA-MB-453 [11]) was 86.1%.
COc1cc2/c(=N/c3ccc(Br)cc3F)nc[nH]c2cc1OCC1CCN(C)CC1 [Vandetanib] (1000 nM) showed a normalised response (HDQ-P1) of 40.1%, a normalised response (BT-549) of 114% and a normalised response (CAL-120 [1]) of 56.3%. The normalised response (MCF-10A [2]) was 84%, the normalised response (HCC1599 [3]) was 106% and the normalised response (CAL-85-1 [4]) was 117%. The normalised response (HCC1143 [5]) was 85.7%, the normalised response (BT-474 [6]) was 96.7% and the normalised response (Hs578T [7]) was 105%. It also gave a normalised response (MDA-MB-436 [8]) of 84.6%, a normalised response (CAL-148) of 99.8% and a normalised response (DU-4475 [9]) of 96.9%. For the same molecule, the normalised response (MDA-MB-468 [10]) was 128% and the normalised response (MDA-MB-453 [11]) was 96.7%.
Work on COCC[n+]1c2c(n(Cc3cnccn3)c1C)C(=O)c1ccccc1C2=O [YM155] (1000 nM) yielded a normalised response (HDQ-P1) of -26.1%, a normalised response (BT-549) of 14.8% and a normalised response (CAL-120 [1]) of -14.7%. The normalised response (MCF-10A [2]) was -47.8%, the normalised response (HCC1599 [3]) was 51.1% and the normalised response (CAL-85-1 [4]) was -94.7%. The normalised response (HCC1143 [5]) was 49.3%, the normalised response (BT-474 [6]) was -1.55% and the normalised response (Hs578T [7]) was 92.9%. For the same molecule, the normalised response (MDA-MB-436 [8]) was -1.05%, the normalised response (CAL-148) was -7.66% and the normalised response (DU-4475 [9]) was 77%. For the same molecule, the normalised response (MDA-MB-468 [10]) was -55.5% and the normalised response (MDA-MB-453 [11]) was 42.2%.
Work on COCC[n+]1c2c(n(Cc3cnccn3)c1C)C(=O)c1ccccc1C2=O [YM155] (10000 nM) yielded a normalised response (HDQ-P1) of 25.1%, a normalised response (BT-549) of 8.26% and a normalised response (CAL-120 [1]) of -11.6%. The normalised response (MCF-10A [2]) was -38.3%, the normalised response (HCC1599 [3]) was 55.7% and the normalised response (CAL-85-1 [4]) was -73.8%. It also gave a normalised response (HCC1143 [5]) of 62.8%, a normalised response (BT-474 [6]) of -15% and a normalised response (Hs578T [7]) of 18.1%. For the same molecule, the normalised response (MDA-MB-436 [8]) was 32.2%, the normalised response (CAL-148) was 2.48% and the normalised response (DU-4475 [9]) was 68.1%. The normalised response (MDA-MB-468 [10]) was -110% and the normalised response (MDA-MB-453 [11]) was 28.4%.

Reference: the supplement of paper PMC4862054
